According to ChEMBL document CHEMBL4196052, “Rational modifications on a benzylidene-acrylohydrazide antiviral scaffold, synthesis and evaluation of bioactivity against Chikungunya virus” (Eur J Med Chem, 2018):
pEC50: −log10 of the molar value.

What was measured:
[1] = test system: Chikungunya virus; assay: Antiviral activity against Chikungunya virus Indian Ocean strain 899 infected in African green monkey Vero cells assessed as inhibition of viral-induced cytopathic effect by measuring concentration required for maximum activity measured on day 5 post infection by MTS/PMS assay; assay type: functional, Indian Ocean 899
[2] = test system: Chikungunya virus; assay: Antiviral activity against Chikungunya virus Indian Ocean strain 899 infected in African green monkey Vero cells assessed as inhibition of viral-induced cytopathic effect measured on day 5 post infection by MTS/PMS assay; assay type: functional, organism-based, Indian Ocean 899; settings: for pEC50 / EC90: Chikungunya virus, Indian Ocean 899, Vero, 120 h

Structure (SMILES)	Activity [1]	Imax [2]	pEC50 [2]	EC90 [2]
Cc1ccc(-c2nnc(/C=C/c3ccc(C(C)(C)C)cc3)o2)cc1	157 µM	8%	< 3.80	> 157 µM
CCOc1ccc(/C=N/NC(=O)c2cnc3ccccc3c2)cc1OCC	275 µM	3%	< 3.56	> 275 µM
C/C(=N\NC(=O)c1ccc2ccccc2n1)c1ccc(C2CCCCC2)cc1	269 µM	13%	< 3.57	> 269 µM
O=C(N/N=C/c1ccc(O)cc1)c1ccc2ccccc2n1	343 µM	<1%	< 3.46	> 343 µM
CCOc1ccc(/C=N/NC(=O)c2nc3ccccc3[nH]2)cc1OCC	284 µM	6%	< 3.55	> 284 µM
COc1ccc(CNC(=O)N/C=C/c2ccc(C(C)(C)C)cc2)cc1OC	17 µM	100%	4.94	14.8 µM
Cc1ccc(/C=N/NC(=S)NCCc2ccccc2)cc1	56 µM	12%	< 3.47	> 336 µM
Cc1ccc2[nH]c(NC(=O)CCc3ccc(C(C)(C)C)cc3)nc2c1	1.6 µM	8%	< 3.53	> 298 µM
Cc1ccc(-c2nnc(CCc3ccc(C(C)(C)C)cc3)o2)cc1	26 µM	100%	4.76	21.7 µM
CCOc1ccc(/C=N/NC(=O)c2ccc3ccccc3c2)cc1OCC	276 µM	24%	< 3.56	> 276 µM
CC(C)(C)c1ccc(CCC(=O)Nc2nc3ccccc3[nH]2)cc1	311 µM	41%	< 3.51	> 311 µM
O=C(N/N=C/c1ccc(O)cc1)c1cc2ccccc2[nH]1	358 µM	51%	3.46	> 358 µM
O=C(N/N=C/c1ccc(O)cc1)c1cnc2ccccc2c1	343 µM	<1%	< 3.46	> 343 µM
Cc1ccc(NC(=O)N/C=C/c2ccccc2)cc1	396 µM	21%	< 3.40	> 396 µM
CCN(CC)CCCC(C)Nc1ccnc2cc(Cl)ccc12 (stereo not given) [CHLOROQUINE]	–	–	–	21 µM
Cc1ccc2[nH]c(NC(=O)/C=C/c3ccc(C(C)(C)C)cc3)nc2c1	300 µM	47%	< 3.52	> 300 µM
COc1ccc(/C=C/C(=O)N/N=C(\C)c2ccc(C3CCCCC3)cc2)cc1	66 µM	9%	< 4.06	> 87.7 µM
Cc1ccc(/C=N/NC(=O)c2cc3ccccc3[nH]2)cc1	361 µM	45%	< 3.44	> 361 µM
C/C(=N\NC(=O)c1cc2ccccc2[nH]1)c1ccc(C2CCCCC2)cc1	209 µM	41%	< 3.68	> 209 µM
COc1ccc(CNC(=O)N/C=C/c2ccccc2)cc1OC	320 µM	13%	< 3.49	> 320 µM
COc1ccc(/C=C/C(=O)N/N=C/c2ccc(C)cc2)cc1	112 µM	13%	< 3.95	> 112 µM
C/C(=N\NC(=O)c1ccc2ccccc2c1)c1ccc(C2CCCCC2)cc1	270 µM	14%	< 3.57	> 270 µM
O=C(N/C=C/c1ccccc1)Nc1ccc(O)cc1	197 µM	2%	< 3.41	> 393 µM

Structure (SMILES)	Activity [1]	Imax [2]	pEC50 [2]	EC90 [2]
Cc1ccc(C(=O)NNC(=O)/C=C/c2ccc(C(C)(C)C)cc2)cc1	99.1 µM	9%	< 4.00	> 99.1 µM
CC(C)(C)c1ccc(/C=C/NC(=O)NCc2ccccc2)cc1	107 µM	8%	< 3.97	> 107 µM
C/C(=N\NC(=O)c1cnc2ccccc2c1)c1ccc(C2CCCCC2)cc1	202 µM	19%	< 3.69	> 202 µM
CCOc1ccc(/C=N/NC(=O)/C=C/c2ccc(C(C)(C)C)cc2)cc1OCC	12.5 µM	100%	–	11 µM
CCOc1ccc(-c2nnc(/C=C/c3ccc(C(C)(C)C)cc3)o2)cc1OCC	127.4 µM	100%	4.54	88.2 µM
Cc1ccc(/C=N/NC(=O)c2nc3ccccc3[nH]2)cc1	120 µM	14%	< 3.92	> 120 µM
CCOc1ccc(/C=N/NC(=O)c2cc3ccccc3[nH]2)cc1OCC	213 µM	50%	< 3.67	> 213 µM
C/C(=N\NC(=O)/C=C/c1ccc(-c2ccccc2)cc1)c1ccc(C2CCCCC2)cc1	30 µM	15%	< 4.53	> 29.6 µM
O=C(N/N=C/c1ccc(O)cc1)c1ccc2ccccc2c1	344 µM	2%	< 3.46	> 344 µM
CCOc1ccc(/C=N/NC(=O)/C=C/c2ccc(-c3ccccc3)cc2)cc1OCC	120 µM	47%	< 4.10	> 80.2 µM
CCOc1ccc(/C=N/NC(=O)N/C=C/c2ccc(C(C)(C)C)cc2)cc1OCC	100 µM	49%	< 4.00	> 100 µM
CCOc1ccc(/C=N/NC(=O)/C=C/c2ccc(OC)cc2)cc1OCC	45 µM	8%	< 3.57	> 271 µM
Cc1ccc(CNC(=O)N/C=C/c2ccc(C(C)(C)C)cc2)cc1	103 µM	10%	< 3.99	> 103 µM
CC(C)(C)c1ccc(/C=C/C(=O)Nc2nc3ccccc3[nH]2)cc1	157 µM	38%	< 3.80	> 157 µM
CCOc1ccc(/C=N/NC(=O)c2ccc3ccccc3n2)cc1OCC	275 µM	8%	< 3.56	> 275 µM
CC(C)(C)c1ccc(/C=C/NC(=O)Nc2ccc(O)cc2)cc1	4.1 µM	100%	5.04	11.9 µM
Cc1ccc(NC(=O)N/C=C/c2ccc(C(C)(C)C)cc2)cc1	61 µM	16%	< 4.21	> 61 µM
CCOc1ccc(-c2nnc(Cc3ccc(C(C)(C)C)cc3)o2)cc1OCC	131.4 µM	15%	4.40	–
Cc1ccc(-c2nnc(Cc3ccc(C(C)(C)C)cc3)o2)cc1	27.2 µM	100%	4.75	22.7 µM
Cc1ccc(/C=N/NC(=O)c2ccc3ccccc3c2)cc1	347 µM	10%	< 3.46	> 347 µM
CCOc1ccc(-c2nnc(CCc3ccccc3)o2)cc1OCC	73.9 µM	4%	< 4.01	> 98.4 µM
C/C(=N\NC(=O)/C=C/c1ccc(C(F)(F)F)cc1)c1ccc(C2CCCCC2)cc1	241 µM	12%	< 3.62	> 241 µM
